# According to patent publication US20120301510A1, “TOLEROGENIC SYNTHETIC NANOCARRIERS COUPLED TO CD1D-RESTRICTED ANTIGENS AND METHODS OF USE” (Selecta Biosciences, Inc., priority 2011, published 2012):
# Test system: iNKT cells
# Experiment: iNKT cell activation in mice after injection of aGC and/or rapamycin, soluble or in nanocarriers (flow cytometry of liver lymphocytes)
# Assay type: in vivo
# Conditions: about 4 h after injection
# Procedure: Mice were designated to groups that received PBS alone, soluble aGC, NPaGC, sol aGC+solRAPA, sol aGC+NP RAPA, NPaGC+solRAPA or NPaGC+NP RAPA. Mice were injected at 9 am and at 9.30 AM received BrefeldinA i.v. to prevent release of intracellular cytokines produced. At 1 pm, mice were sacrificed and the liver was perfused with PBS and processed to obtain a single cell suspension enriched for lymphocytes. Cells were stained with cell surface markers for iNKT cells (agc-loaded CD1d tetramers) and T cells receptor (TCRb) and activation marker CD69. The cell suspension was then permeabilized and intracellular cytokine staining was performed for Th1 cytokine IFN-γ, and Th2 cytokines IL-4 and the anti-inflammatory cytokine IL-10. Cells were acquired on a FacsCanto flow cytometer and analyzed on by FlowJo.
smiles,measurement,value
"CCCCCCCCCCCCCCCCCCCCCCCCCC(=O)N[C@@H](CO[C@H]1O[C@H](CO)[C@H](O)[C@H](O)[C@H]1O)[C@H](O)[C@H](O)CCCCCCCCCCCCCC [aGC, α-Galactosyl Ceramide (KRN7000)]",iNKT cell activation as seen by cytokine production and upregulation of CD69 on their surface,activated
